Data: publication PMC2930046 (Archives of biochemistry and biophysics, 2010)
Several values for one entry are separate records, joined by “and”; a condition that tells them apart may be missing. Identical values can stand only once. Peptide text beside a SMILES is read from it. * marks the point of attachment. AMC = Cc1cc(=O)oc2cc(N*)ccc12; Cbz = O=C(OCc1ccccc1)*

Assays:
[1] = system: Mtb proteasome; details: cited from earlier work
[2] = molecular target: mammalian proteasome; details: cited from earlier work
[3] = molecular target: human 20S β5 (Homo sapiens, UniProt P28074); format: biochemical
[4] = system: proteasome β5; details: read-out: IC50 for β5; cited from earlier work
[5] = molecular target: T1, Mtb20SOG (Mycobacterium tuberculosis, UniProt P9WHT9); format: biochemical; details: retest of screening hits
[6] = system: cancer cells; details: cited from earlier work
[7] = system: fibroblasts and glial-derived cells; details: through inhibition of proteasome activity; cited from earlier work
[8] = molecular target: T1, Mtb20SOG; experiment: Kinetics of inhibition of Mtb20SOG, progress curves of Suc-LLVY-AMC cleavage; format: biochemical

T1 sequence (P9WHT9 58-291): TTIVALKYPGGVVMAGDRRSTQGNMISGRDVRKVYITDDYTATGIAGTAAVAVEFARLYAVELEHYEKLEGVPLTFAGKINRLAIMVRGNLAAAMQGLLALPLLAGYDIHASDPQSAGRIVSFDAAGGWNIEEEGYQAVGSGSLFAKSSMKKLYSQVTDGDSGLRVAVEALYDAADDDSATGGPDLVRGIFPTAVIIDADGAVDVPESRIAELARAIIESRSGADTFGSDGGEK

CC(=O)NC(CC(N)=O)C(=O)NC(CCC(N)=O)C(=O)NC(CC(C)C)C(=O)Nc1ccc2c(C)cc(=O)oc2c1 (stereo not drawn) [Ac-NQL-AMC] (Ac-Asn-Gln-Leu-{AMC}; configuration not given here)
hydrolysis by the Mtb proteasome [1]: could not be hydrolyzed

CC(C)C[C@@H](C=O)NC(=O)[C@H](CC(C)C)NC(=O)[C@H](CC(C)C)NC(=O)OCc1ccccc1 [Z-Leu-Leu-Leu-Cho] (Cbz-Leu-Leu-Leu-aldehyde)
Ki [2]: 4 nM

CCCCCCCCC[C@@H](O)CC(=O)N[C@@H](CC(N)=O)C(=O)N[C@@H](CCC(N)=O)C(=O)N[C@H](C=O)CC(C)C [compound 1, (R)-3-hydroxydodecanoyl-Asn-Gln-Leu-CHO]
advantage on binding affinity of EI* over EI (ΔG = −RTlnK) [3]: 1.5 kcal/mol | k5/k6 ratio [3]: 11 | Ki ([3]; Ki, initial EI complex, corrected by equation 4, two-step mechanism): 11.6 nM and 11.5 nM | distribution of enzyme into EI* ([3]; from k5/k6 ratio): 91% | IC50 [4]: 9.6 nM | inhibition of Mtb20SOG on retest with re-supplied compound [5]: dose-dependent inhibition | cytotoxicity to cancer cells [6]: cytotoxic to cancer cells | release of nerve growth factor [7]: induce the release of nerve growth factor | Ki ([8]; Ki calculated from koff/kon, koff/kon): 7.4 nM | Ki ([8]; Ki, Morrison fit of vs/vo vs [1], corrected by (1+[S]/KM), one-step slow binding): 6.8 nM | Ki ([8]; Kiapp, apparent, Morrison equation 3, uncorrected): 11.1 nM | koff ([8]; read-out: k4 (koff)): 0.00096 s⁻¹ | kon ([8]; read-out: kon^app (slope of the fit, apparent)): 79500 M⁻¹ s⁻¹
